# Like-named read-outs stand apart in the source and are kept apart here.
# Tests used:
# [1] = target: T1, Full length WRN protein (aa 2-1432) (Homo sapiens (Human), UniProt Q14191); assay: WRN ATPase ADP-Glo biochemical assay, Assay Format A (10 μM ATP); conditions: 0.25 nM WRN, 100 nM C6.18 ssDNA, 30 min preincubation, read-out: ATPase ADPGlo AC50 (uM)- Assay Format A
# Procedure, shortened: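 Sf9-expressed FLAG-AVI-TEV-tagged WRN (0.5 nM) preincubated 30 min with compound (11-point 3-fold dilution). Reaction started with 200 nM C6.18 39-mer ssDNA and 20 μM ATP (addition concentrations), run 30 min at room temperature. ADP measured by ADP-Glo luminescence; IC50 from four-parameter fit, geometric mean of ≥2 runs.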
# [2] = target: T1, Full length WRN protein (aa 2-1432); assay: WRN ATPase ADP-Glo biochemical assay, Assay Format B (100 μM ATP); conditions: 0.25 nM WRN, 100 nM C6.18 ssDNA, 60 min preincubation, read-out: ATPase ADPGlo AC50 (uM)- Assay Format B
# HCT116 cells = assay: HCT116 (MSI) 7 day viability, CellTiter Glo; format: cell-based; conditions: 7 days, read-out: HCT116 (MSI) Viability 7 Day Abs AC50
# Procedure, shortened: (§1)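 Seven-day viability is assessed with CellTiter Glo after compounds, diluted in ten 3-fold steps in DMSO, are exposed to HCT116 (50 cells/well) or HT29 (500 cells/well). Reported IC50 is the geometric mean of at least two independent runs.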
# HT29 cells = assay: HT29 (MSS) 7 day viability, CellTiter Glo; format: cell-based; conditions: 7 days, read-out: HT29 (MSS) Viability 7 Day CTGAbs AC50
# Procedure, shortened: as §1
# T1 sequence (Q14191 2-1432): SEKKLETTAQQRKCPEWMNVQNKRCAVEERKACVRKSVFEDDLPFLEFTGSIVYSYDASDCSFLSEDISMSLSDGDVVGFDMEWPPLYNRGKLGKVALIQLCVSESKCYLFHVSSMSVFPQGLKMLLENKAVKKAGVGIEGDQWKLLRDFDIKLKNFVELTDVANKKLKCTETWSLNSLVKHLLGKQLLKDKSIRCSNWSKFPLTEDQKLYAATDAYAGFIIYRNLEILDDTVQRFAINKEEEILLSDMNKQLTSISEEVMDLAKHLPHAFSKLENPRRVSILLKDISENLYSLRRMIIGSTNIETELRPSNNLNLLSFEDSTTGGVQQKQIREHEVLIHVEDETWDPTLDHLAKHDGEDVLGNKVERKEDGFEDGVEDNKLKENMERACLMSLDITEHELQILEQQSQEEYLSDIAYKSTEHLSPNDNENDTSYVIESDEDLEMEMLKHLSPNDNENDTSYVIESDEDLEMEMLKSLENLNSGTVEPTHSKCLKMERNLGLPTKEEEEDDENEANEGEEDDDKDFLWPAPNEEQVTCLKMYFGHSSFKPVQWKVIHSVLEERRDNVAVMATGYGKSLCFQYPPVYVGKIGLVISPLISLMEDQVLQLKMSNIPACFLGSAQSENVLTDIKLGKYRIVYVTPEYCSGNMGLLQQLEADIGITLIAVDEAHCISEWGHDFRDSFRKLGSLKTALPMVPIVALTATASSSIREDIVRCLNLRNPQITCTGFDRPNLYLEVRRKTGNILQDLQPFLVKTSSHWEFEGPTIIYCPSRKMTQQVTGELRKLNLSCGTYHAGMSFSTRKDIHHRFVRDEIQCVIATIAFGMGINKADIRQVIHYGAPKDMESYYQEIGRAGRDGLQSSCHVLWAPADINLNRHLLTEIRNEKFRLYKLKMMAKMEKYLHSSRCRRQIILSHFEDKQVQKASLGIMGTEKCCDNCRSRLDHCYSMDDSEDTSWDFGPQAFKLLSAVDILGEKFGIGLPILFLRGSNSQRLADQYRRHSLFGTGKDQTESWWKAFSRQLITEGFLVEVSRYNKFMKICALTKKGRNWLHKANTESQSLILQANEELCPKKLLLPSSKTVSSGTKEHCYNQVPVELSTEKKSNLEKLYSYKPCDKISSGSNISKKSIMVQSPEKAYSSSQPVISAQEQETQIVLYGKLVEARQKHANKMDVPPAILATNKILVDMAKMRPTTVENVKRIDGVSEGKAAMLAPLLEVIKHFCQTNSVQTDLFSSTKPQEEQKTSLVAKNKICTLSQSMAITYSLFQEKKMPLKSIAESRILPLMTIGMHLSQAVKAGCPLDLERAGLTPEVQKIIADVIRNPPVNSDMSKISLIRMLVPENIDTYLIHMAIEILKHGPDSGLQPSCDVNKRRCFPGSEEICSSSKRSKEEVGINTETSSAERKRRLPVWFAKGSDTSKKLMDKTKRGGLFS
SMILES,AC50 [1] [µM],AC50 [2] [µM],AC50 (HCT116 cells) [nM],AC50 (HT29 cells) [nM],"AC50 (HCT116 cells; Homo sapiens, HCT-116, 168 h) [nM]","AC50 (HT29 cells; Homo sapiens, HT-29, 168 h) [nM]"
"C=CC(=O)N1CCc2nn(-c3ccc(C(C)C)cc3)c3c2C(C1)N(C(=O)c1ccc(Br)c2ncn(CC4CCO4)c12)CC3 (stereo not drawn) [Compound 83, 1-(5-(4-bromo-1-((oxetan-2-yl)methyl)-1H-benzo[d]imidazole-7-carbonyl)-2-(4-isopropylphenyl)-2,3,4,5,5a,6,8,9-octahydro-7H-1,2,5,7-tetraazabenzo[cd]azulen-7-yl)prop-2-en-1-one]",0.005 to 0.015,> 0.055,500 to 1000,> 3000,,
"C=CC(=O)N1CCc2nn(-c3ccc(C45CC(C4)C5)c(F)c3)c3c2C(C1)N(C(=O)c1ccc(Br)c2[nH]cnc12)CC3 (stereo not drawn) [Compound 84, 1-(2-(4-(bicyclo[1.1.1]pentan-1-yl)-3-fluorophenyl)-5-(7-bromo-1H-benzo[d]imidazole-4-carbonyl)-2,3,4,5,5a,6,8,9-octahydro-7H-1,2,5,7-tetraazabenzo[cd]azulen-7-yl)prop-2-en-1-one]",0.0015 to 0.005,0.015 to 0.055,,,1 to 100,> 3000
"C=CC(=O)N1CCc2nc(-c3ccc(C4CCC4)cc3)n3c2C(C1)N(C(=O)c1cnc(C(F)(F)F)c(O)c1)CC3 (stereo not drawn) [Compound 86, 1-(2-(4-cyclobutylphenyl)-5-(5-hydroxy-6-(trifluoromethyl)nicotinoyl)-4,5,5a,6,8,9-hexahydro-1,2a,5,7-tetraazabenzo[cd]azulen-7(3H)-yl)prop-2-en-1-one]",< 0.0015,0.015 to 0.055,,,250 to 500,> 3000
"C=CC(=O)N1CCc2nn(-c3ccc(C4CCC4)cc3O)c3c2C(C1)N(C(=O)c1ccc(Br)c2[nH]ncc12)CC3 (stereo not drawn) [Compound 87, 1-(5-(7-bromo-1H-indazole-4-carbonyl)-2-(4-cyclobutyl-2-hydroxyphenyl)-2,3,4,5,5a,6,8,9-octahydro-7H-1,2,5,7-tetraazabenzo[cd]azulen-7-yl)prop-2-en-1-one]",< 0.0015,0.0015 to 0.005,,,1 to 100,> 3000
"C=CC(=O)N1CCc2nn(-c3ccc(C4CCC4)cc3O)c3c2C(C1)N(C(=O)c1cnc(C(F)(F)F)c(SC)c1)CC3 (stereo not drawn) [Compound 89, 1-(2-(4-cyclobutyl-2-hydroxyphenyl)-5-(5-(methylthio)-6-(trifluoromethyl)nicotinoyl)-2,3,4,5,5a,6,8,9-octahydro-7H-1,2,5,7-tetraazabenzo[cd]azulen-7-yl)prop-2-en-1-one]",< 0.0015,0.015 to 0.055,,,1 to 100,> 3000
"C=CC(=O)N1CCc2nn(-c3ccc(C4CCC4)cc3O)c3c2C(C1)N(C(=O)c1ccc(Br)c2nc(C(F)F)[nH]c12)CC3 (stereo not drawn) [Compound 90, 1-(5-(4-bromo-2-(difluoromethyl)-1H-benzo[d]imidazole-7-carbonyl)-2-(4-cyclobutyl-2-hydroxyphenyl)-2,3,4,5,5a,6,8,9-octahydro-7H-1,2,5,7-tetraazabenzo[cd]azulen-7-yl)prop-2-en-1-one]",< 0.0015,0.005 to 0.015,,,1 to 100,> 3000
"C=CC(=O)N1CCc2nn(-c3ccc(C4CCC4)c(O)c3)c3c2C(C1)N(C(=O)c1cnc(C(F)(F)F)c(O)c1)CC3 (stereo not drawn) [Compound 91, 1-(2-(4-cyclobutyl-3-hydroxyphenyl)-5-(5-hydroxy-6-(trifluoromethyl)nicotinoyl)-2,3,4,5,5a,6,8,9-octahydro-7H-1,2,5,7-tetraazabenzo[cd]azulen-7-yl)prop-2-en-1-one]",< 0.0015,0.005 to 0.015,,,250 to 500,> 3000
"C=CC(=O)N1CCc2nn(-c3ccc(C45CC(C4)C5)cc3O)c3c2C(C1)N(C(=O)c1cnc(C(F)(F)F)c(O)c1)CC3 (stereo not drawn) [Compound 92, 1-(2-(4-(bicyclo[1.1.1]pentan-1-yl)-2-hydroxyphenyl)-5-(5-hydroxy-6-(trifluoromethyl)nicotinoyl)-2,3,4,5,5a,6,8,9-octahydro-7H-1,2,5,7-tetraazabenzo[cd]azulen-7-yl)prop-2-en-1-one]",< 0.0015,0.015 to 0.055,,,1 to 100,> 3000
"C=CC(=O)N1CCc2nn(-c3ccc(C4CCC4)cc3O)c3c2C(C1)N(C(=O)c1ccc(OC(F)(F)F)nc1)CC3 (stereo not drawn) [Compound 93, 1-(2-(4-cyclobutyl-2-hydroxyphenyl)-5-(6-(trifluoromethoxy)nicotinoyl)-2,3,4,5,5a,6,8,9-octahydro-7H-1,2,5,7-tetraazabenzo[cd]azulen-7-yl)prop-2-en-1-one]",< 0.0015,0.005 to 0.015,,,1 to 100,> 3000
"C=CC(=O)N1CCc2nn(-c3ccc(C4CCC4)cc3O)c3c2C(C1)N(C(=O)c1ncc(Br)c2[nH]cnc12)CC3 (stereo not drawn) [Compound 95, 1-(5-(7-bromo-1H-imidazo[4,5-c]pyridine-4-carbonyl)-2-(4-cyclobutyl-2-hydroxyphenyl)-2,3,4,5,5a,6,8,9-octahydro-7H-1,2,5,7-tetraazabenzo[cd]azulen-7-yl)prop-2-en-1-one]",< 0.0015,0.0015 to 0.005,,,1 to 100,> 3000
"C=CC(=O)N1CCc2nn(-c3ccc(C4CCC4)cc3O)c3c2C(C1)N(C(=O)c1ccc(C(F)(F)F)nc1)CC3 (stereo not drawn) [Compound 96, 1-(2-(4-cyclobutyl-2-hydroxyphenyl)-5-(6-(trifluoromethyl)nicotinoyl)-2,3,4,5,5a,6,8,9-octahydro-7H-1,2,5,7-tetraazabenzo[cd]azulen-7-yl)prop-2-en-1-one]",< 0.0015,0.005 to 0.015,,,1 to 100,> 3000
"C=CC(=O)N1CCc2nn(-c3ccc(C4CCC4)cc3O)c3c2C(C1)N(C(=O)c1ccc(C(F)(F)F)c2[nH]ncc12)CC3 (stereo not drawn) [Compound 97, 1-(2-(4-cyclobutyl-2-hydroxyphenyl)-5-(7-(trifluoromethyl)-1H-indazole-4-carbonyl)-2,3,4,5,5a,6,8,9-octahydro-7H-1,2,5,7-tetraazabenzo[cd]azulen-7-yl)prop-2-en-1-one]",< 0.0015,0.005 to 0.015,,,1 to 100,> 3000
"C=CC(=O)N1CCc2nn(-c3ccc(C4CC4)c(F)c3O)c3c2C(C1)N(C(=O)c1cnc(C(F)(F)F)c(O)c1)CC3 (stereo not drawn) [Compound 100, 1-(2-(4-cyclopropyl-3-fluoro-2-hydroxyphenyl)-5-(5-hydroxy-6-(trifluoromethyl)nicotinoyl)-2,3,4,5,5a,6,8,9-octahydro-7H-1,2,5,7-tetraazabenzo[cd]azulen-7-yl)prop-2-en-1-one]",0.0015 to 0.005,0.015 to 0.055,,,100 to 250,> 3000
"C=CC(=O)N1CCc2nn(-c3ccc(C45CC(C4)C5)c(F)c3O)c3c2C(C1)N(C(=O)c1cnc(C(F)(F)F)c(O)c1)CC3 (stereo not drawn) [Compound 101, 1-(2-(4-(bicyclo[1.1.1]pentan-1-yl)-3-fluoro-2-hydroxyphenyl)-5-(5-hydroxy-6-(trifluoromethyl)nicotinoyl)-2,3,4,5,5a,6,8,9-octahydro-7H-1,2,5,7-tetraazabenzo[cd]azulen-7-yl)prop-2-en-1-one]",0.0015 to 0.005,0.015 to 0.055,,,100 to 250,> 3000
"C=CC(=O)N1CCc2nn(-c3ccc(C(C)C)cc3)c3c2C(C1)N(C(=O)c1ccc(Br)c(C(C)(C)O)c1)CC3 (stereo not drawn) [Compound 102, 1-(5-(4-bromo-3-(2-hydroxypropan-2-yl)benzoyl)-2-(4-isopropylphenyl)-2,3,4,5,5a,6,8,9-octahydro-7H-1,2,5,7-tetraazabenzo[cd]azulen-7-yl)prop-2-en-1-one]",0.005 to 0.015,> 0.055,,,500 to 1000,> 3000
"C=CC(=O)N1CCOc2nn(-c3ccc(C4CC4)cc3C)c3c2C(C1)N(C(=O)c1ccc(Br)c2[nH]cnc12)CC3 (stereo not drawn) [Compound 103, 1-(5-(7-bromo-1H-benzo[d]imidazole-4-carbonyl)-2-(4-cyclopropyl-2-methylphenyl)-2,3,4,5,5a,6,8,9-octahydro-7H-10-oxa-1,2,5,7-tetraazacycloocta[cd]inden-7-yl)prop-2-en-1-one]",< 0.0015,0.015 to 0.055,,,250 to 500,> 3000
"C=CC(=O)N1CCc2nn(-c3ccc(C(C)C)cc3)c3c2C(C1)N(C(=O)c1ccc(Br)c(NCC(F)(F)F)c1)CC3 (stereo not drawn) [Compound 104, 1-(5-(4-bromo-3-((2,2,2-trifluoroethyl)amino)benzoyl)-2-(4-isopropylphenyl)-2,3,4,5,5a,6,8,9-octahydro-7H-1,2,5,7-tetraazabenzo[cd]azulen-7-yl)prop-2-en-1-one]",0.005 to 0.015,> 0.055,,,1 to 100,> 3000
"C=CC(=O)N1CCc2nn(-c3ccc(C(C)C)cc3)c3c2C(C1)N(C(=O)c1ccc(Br)c(-c2cc[nH]n2)c1)CC3 (stereo not drawn) [Compound 106, 1-(5-(4-bromo-3-(1H-pyrazol-3-yl)benzoyl)-2-(4-isopropylphenyl)-2,3,4,5,5a,6,8,9-octahydro-7H-1,2,5,7-tetraazabenzo[cd]azulen-7-yl)prop-2-en-1-one]",0.0015 to 0.005,> 0.055,,,250 to 500,> 3000

# Source: patent publication US20250346600A1, “TRICYCLIC DERIVATIVES AND RELATED USES” (MOMA Therapeutics, Inc., priority 2023, published 2025)
